Reference: ChEMBL document CHEMBL4138123, “Design, synthesis and biological evaluation of novel pyrazolochalcones as potential modulators of PI3K/Akt/mTOR pathway and inducers of apoptosis in breast cancer cells” (Eur J Med Chem, 2017)

Columns and labels:
Assay type in all cases: functional
MOLT-4 = test: Cytotoxicity against human MOLT4 cells assessed as growth inhibition after 48 hrs by sulforhodamine B assay; conditions: MOLT-4, 48 h; for CC50: read-out: LC50 (the source's name)
NCI-H460 = test: Cytotoxicity against human NCI-H460 cells assessed as growth inhibition after 48 hrs by sulforhodamine B assay; conditions: NCI-H460, 48 h
SF-539 [1] = test: Cytotoxicity against human SF539 cells assessed as growth inhibition after 48 hrs by sulforhodamine B assay; conditions: SF-539, 48 h
SK-MEL-28 = test: Cytotoxicity against human SK-MEL-28 cells assessed as growth inhibition after 48 hrs by sulforhodamine B assay; conditions: SK-MEL-28, 48 h
UACC-62 = test: Cytotoxicity against human UACC62 cells assessed as growth inhibition after 48 hrs by sulforhodamine B assay; conditions: UACC-62, 48 h
OVCAR-3 = test: Cytotoxicity against human OVCAR3 cells assessed as growth inhibition after 48 hrs by sulforhodamine B assay; conditions: OVCAR-3, 48 h
786-0 = test: Cytotoxicity against human 786-0 cells assessed as growth inhibition after 48 hrs by sulforhodamine B assay; conditions: 786-0, 48 h
RXF 393 = test: Cytotoxicity against human RXF393 cells assessed as growth inhibition after 48 hrs by sulforhodamine B assay; conditions: RXF 393, 48 h
MDA-MB-231 [2] = test: Cytotoxicity against human MDA-MB-231 cells assessed as growth inhibition after 48 hrs by sulforhodamine B assay; conditions: MDA-MB-231, 48 h
ACHN = test: Cytotoxicity against human ACHN cells assessed as cell growth at 0.01 uM after 48 hrs by sulforhodamine B assay relative to control; conditions: read-out: Activity
UACC-257 = test: Cytotoxicity against human UACC257 cells assessed as cell growth at 0.01 uM after 48 hrs by sulforhodamine B assay relative to control; conditions: UACC-257, 48 h, read-out: Activity
SK-MEL-5 = test: Cytotoxicity against human SK-MEL-5 cells assessed as cell growth at 0.01 uM after 48 hrs by sulforhodamine B assay relative to control; conditions: SK-MEL-5, 48 h, read-out: Activity
SNB-19 = test: Cytotoxicity against human SNB19 cells assessed as cell growth at 0.01 uM after 48 hrs by sulforhodamine B assay relative to control; conditions: SNB-19, 48 h, read-out: Activity
HCT-116 = test: Cytotoxicity against human HCT116 cells assessed as cell growth at 0.01 uM after 48 hrs by sulforhodamine B assay relative to control; conditions: HCT-116, 48 h, read-out: Activity
K562 = test: Cytotoxicity against human K562 cells assessed as cell growth at 0.01 uM after 48 hrs by sulforhodamine B assay relative to control; conditions: K562, 48 h, read-out: Activity
SN12C = test: Cytotoxicity against human SN12C cells assessed as cell growth at 0.01 uM after 48 hrs by sulforhodamine B assay relative to control; conditions: read-out: Activity
RPMI-8226 = test: Cytotoxicity against human RPMI8226 cells assessed as cell growth at 0.1 uM after 48 hrs by sulforhodamine B assay relative to control; conditions: RPMI-8226, 48 h, read-out: Activity
NCI-H522 [3] = test: Cytotoxicity against human NCI-H522 cells assessed as cell growth at 0.1 uM after 48 hrs by sulforhodamine B assay relative to control; conditions: NCI-H522, 48 h, read-out: Activity
SF-539 [4] = test: Cytotoxicity against human SF539 cells assessed as cell growth at 0.1 uM after 48 hrs by sulforhodamine B assay relative to control; conditions: SF-539, 48 h, read-out: Activity
MDA-MB-435 = test: Cytotoxicity against human MDA-MB-435 cells assessed as cell growth at 0.1 uM after 48 hrs by sulforhodamine B assay relative to control; conditions: MDA-MB-435, 48 h, read-out: Activity
OVCAR-5 [5] = test: Cytotoxicity against human OVCAR5 cells assessed as cell growth at 0.1 uM after 48 hrs by sulforhodamine B assay relative to control; conditions: OVCAR-5, 48 h, read-out: Activity
UO-31 = test: Cytotoxicity against human UO31 cells assessed as cell growth at 0.1 uM after 48 hrs by sulforhodamine B assay relative to control; conditions: UO-31, 48 h, read-out: Activity
A549 = test: Cytotoxicity against human A549/ATCC cells assessed as cell growth at 1 uM after 48 hrs by sulforhodamine B assay relative to control; conditions: A549, 48 h, read-out: Activity
SW-620 = test: Cytotoxicity against human SW620 cells assessed as cell growth at 1 uM after 48 hrs by sulforhodamine B assay relative to control; conditions: SW-620, 48 h, read-out: Activity
MDA-MB-231 [6] = test: Cytotoxicity against human MDA-MB-231 cells assessed as cell growth at 1 uM after 48 hrs by sulforhodamine B assay relative to control; conditions: MDA-MB-231, 48 h, read-out: Activity
HCC 2998 [7] = test: Cytotoxicity against human HCC2998 cells assessed as cell growth at 10 uM after 48 hrs by sulforhodamine B assay relative to control; conditions: HCC 2998, 48 h, read-out: Activity
SF-268 = test: Cytotoxicity against human SF268 cells assessed as cell growth at 10 uM after 48 hrs by sulforhodamine B assay relative to control; conditions: SF-268, 48 h, read-out: Activity
OVCAR-5 [8] = test: Cytotoxicity against human OVCAR5 cells assessed as cell growth at 10 uM after 48 hrs by sulforhodamine B assay relative to control; conditions: OVCAR-5, 48 h, read-out: Activity
CAKI-1 = test: Cytotoxicity against human Caki1 cells assessed as cell growth at 10 uM after 48 hrs by sulforhodamine B assay relative to control; conditions: CAKI-1, 48 h, read-out: Activity
CCRF-CEM = test: Cytotoxicity against human CCRF-CEM cells assessed as cell growth at 100 uM after 48 hrs by sulforhodamine B assay relative to control; conditions: read-out: Activity
NCI-H522 [9] = test: Cytotoxicity against human NCI-H522 cells assessed as cell growth at 100 uM after 48 hrs by sulforhodamine B assay relative to control; conditions: NCI-H522, 48 h, read-out: Activity
HCC 2998 [10] = test: Cytotoxicity against human HCC2998 cells assessed as cell growth at 100 uM after 48 hrs by sulforhodamine B assay relative to control; conditions: HCC 2998, 48 h, read-out: Activity
U-251 = test: Cytotoxicity against human U251 cells assessed as cell growth at 100 uM after 48 hrs by sulforhodamine B assay relative to control; conditions: U-251, 48 h, read-out: Activity
MCF7 = test: Cytotoxicity against human MCF7 cells assessed as cell growth at 100 uM after 48 hrs by sulforhodamine B assay relative to control; conditions: MCF7, 48 h, read-out: Activity

## COc1ccc(-c2cc(/C=C/C(=O)c3ccc(N)cc3)[nH]n2)cc1
MOLT-4
  GI50: 2.32 µM
  TGI: 9.48 µM
  CC50: > 100 µM
NCI-H460
  GI50: 2.07 µM
  LC50: 20.9 µM
  TGI: 4.95 µM
SF-539 [1]
  GI50: 1.47 µM
  LC50 (concentration killing 50% of cells): 8.25 µM
  TGI: 3.48 µM
SK-MEL-28
  GI50: 1.87 µM
  LC50: 8.57 µM
  TGI: 4.01 µM
UACC-62
  GI50: 1.48 µM
  LC50: 5.84 µM
  TGI: 2.94 µM
OVCAR-3
  GI50: 1.25 µM
  LC50: 7.09 µM
  TGI: 2.97 µM
786-0
  GI50: 2.12 µM
  LC50: 58.1 µM
  TGI: 5.69 µM
RXF 393
  GI50: 1.67 µM
  LC50 (concentration killing 50% of cells): 15 µM
  TGI: 4.19 µM
MDA-MB-231 [2]
  GI50: 2.14 µM
  LC50: 55.5 µM
  TGI: 8.29 µM
ACHN
  growth at 0.01 µM: 103%
UACC-257
  growth at 0.01 µM: 96%
SK-MEL-5
  growth at 0.01 µM: 97%
SNB-19
  growth at 0.01 µM: 92%
HCT-116
  growth at 0.01 µM: 97%
K562
  growth at 0.01 µM: 98%
SN12C
  growth at 0.01 µM: 93%
RPMI-8226
  growth at 0.1 µM: 100%
NCI-H522 [3]
  growth at 0.1 µM: 85%
SF-539 [4]
  growth at 0.1 µM: 97%
MDA-MB-435
  growth at 0.1 µM: 103%
OVCAR-5 [5]
  growth at 0.1 µM: 95%
UO-31
  growth at 0.1 µM: 82%
A549
  growth at 1 µM: 84%
SW-620
  growth at 1 µM: 72%
MDA-MB-231 [6]
  growth at 1 µM: 78%
HCC 2998 [7]
  growth at 10 µM: -90%
SF-268
  growth at 10 µM: -29%
OVCAR-5 [8]
  growth at 10 µM: -41%
CAKI-1
  growth at 10 µM: 3%
CCRF-CEM
  growth at 100 µM: -68%
NCI-H522 [9]
  growth at 100 µM: -75%
HCC 2998 [10]
  growth at 100 µM: -93%
U-251
  growth at 100 µM: -100%
MCF7
  growth at 100 µM: -68%

## COc1ccc(C(=O)/C=C/c2cc(-c3cc(OC)c(OC)c(OC)c3)n[nH]2)cc1
MOLT-4
  TGI: 6.82 µM
  CC50: > 100 µM
NCI-H460
  LC50: 8.18 µM
  TGI: 3.75 µM
SF-539 [1]
  GI50: 1.62 µM
  LC50 (concentration killing 50% of cells): 5.85 µM
  TGI: 3.08 µM
SK-MEL-28
  LC50: 9.23 µM
  TGI: 4.42 µM
UACC-62
  TGI: 3.65 µM
OVCAR-3
  LC50: 7.27 µM
  TGI: 3.56 µM
786-0
  TGI: 4.13 µM
RXF 393
  LC50 (concentration killing 50% of cells): 5.17 µM
  TGI: 2.56 µM
MDA-MB-231 [2]
  LC50: > 100 µM
ACHN
  growth at 0.01 µM: 102%
UACC-257
  growth at 0.01 µM: 97%
SK-MEL-5
  growth at 0.01 µM: 100%
SNB-19
  growth at 0.01 µM: 97%
HCT-116
  growth at 0.01 µM: 100%
K562
  growth at 0.01 µM: 97%
SN12C
  growth at 0.01 µM: 99%
RPMI-8226
  growth at 0.1 µM: 90%
NCI-H522 [3]
  growth at 0.1 µM: 87%
SF-539 [4]
  growth at 0.1 µM: 99%
MDA-MB-435
  growth at 0.1 µM: 95%
OVCAR-5 [5]
  growth at 0.1 µM: 97%
UO-31
  growth at 0.1 µM: 96%
A549
  growth at 1 µM: 86%
SW-620
  growth at 1 µM: 82%
MDA-MB-231 [6]
  growth at 1 µM: 81%
HCC 2998 [7]
  growth at 10 µM: -83%
SF-268
  growth at 10 µM: -35%
OVCAR-5 [8]
  growth at 10 µM: -70%
CAKI-1
  growth at 10 µM: -17%
CCRF-CEM
  growth at 100 µM: -16%
NCI-H522 [9]
  growth at 100 µM: -62%
HCC 2998 [10]
  growth at 100 µM: -82%
U-251
  growth at 100 µM: -25%
MCF7
  growth at 100 µM: -69%

## COc1ccc(-c2cc(/C=C/C(=O)c3ccc(OC)c(OC)c3)[nH]n2)cc1
MOLT-4
  GI50: 2.67 µM
  TGI: 8 µM
  CC50: > 100 µM
NCI-H460
  GI50: 1.64 µM
  LC50: 22.8 µM
  TGI: 4.34 µM
SF-539 [1]
  GI50: 1.27 µM
  LC50 (concentration killing 50% of cells): 5.38 µM
  TGI: 2.61 µM
SK-MEL-28
  GI50: 1.65 µM
  LC50: 5.74 µM
  TGI: 3.07 µM
UACC-62
  GI50: 1.65 µM
  LC50: 6.79 µM
  TGI: 3.35 µM
OVCAR-3
  GI50: 1.19 µM
  LC50: 5.15 µM
  TGI: 2.47 µM
786-0
  GI50: 1.6 µM
  LC50: 5.96 µM
  TGI: 3.09 µM
RXF 393
  GI50: 1.39 µM
  LC50 (concentration killing 50% of cells): 6.2 µM
  TGI: 2.94 µM
MDA-MB-231 [2]
  GI50: 2 µM
  LC50: 30 µM
  TGI: 6.63 µM
ACHN
  growth at 0.01 µM: 100%
UACC-257
  growth at 0.01 µM: 92%
SK-MEL-5
  growth at 0.01 µM: 90%
SNB-19
  growth at 0.01 µM: 96%
HCT-116
  growth at 0.01 µM: 97%
K562
  growth at 0.01 µM: 109%
SN12C
  growth at 0.01 µM: 95%
RPMI-8226
  growth at 0.1 µM: 93%
NCI-H522 [3]
  growth at 0.1 µM: 111%
SF-539 [4]
  growth at 0.1 µM: 94%
MDA-MB-435
  growth at 0.1 µM: 95%
OVCAR-5 [5]
  growth at 0.1 µM: 89%
UO-31
  growth at 0.1 µM: 87%
A549
  growth at 1 µM: 77%
SW-620
  growth at 1 µM: 65%
MDA-MB-231 [6]
  growth at 1 µM: 79%
HCC 2998 [7]
  growth at 10 µM: -68%
SF-268
  growth at 10 µM: -40%
OVCAR-5 [8]
  growth at 10 µM: -49%
CAKI-1
  growth at 10 µM: -64%
CCRF-CEM
  growth at 100 µM: -47%
NCI-H522 [9]
  growth at 100 µM: -81%
HCC 2998 [10]
  growth at 100 µM: -95%
U-251
  growth at 100 µM: -100%
MCF7
  growth at 100 µM: -100%
